Key:
hypoxia-induced death = test: Protection against hypoxia-induced death (1-minute exposure to 100% nitrogen atmosphere); type: in vivo; conditions: rats
Description: Groups of rats received either water or drug solution in various doses given i.p. at specified times prior to a 1-minute exposure to a 100% nitrogen atmosphere. This 1-minute nitrogen exposure is lethal within 10 minutes to all animals receiving only vehicle. A 25 mg/kg treatment given 15 minutes before nitrogen exposure protected 3 of 8 animals while giving 50 mg/kg protected all animals.

[1] = system: NMDA-evoked release of acetylcholine, rat striatal brain tissue slices; test: Antagonism of NMDA-evoked release of tritiated acetylcholine from striatal slices; type: cell-based; conditions: rat striatal slices preloaded with tritiated choline; 0.5 mM NMDA; 50 μM compound
Description: Slices of rat striatal brain tissue were preloaded with tritiated choline and the release of tritiated acetylcholine evoked by NMDA in the presence or absence of BMY 14802 hydrochloride is measured.

OC(CCCN1CCN(c2ncc(F)cn2)CC1)c1ccc(F)cc1 (stereo not shown) [BMY 14802, 4-[4-(5-fluoro-2-pyrimidinyl)-1-piperazinyl]-1-(4-fluorophenyl)butanol]
animals protected from hypoxia-induced death (hypoxia-induced death; 25 mg/kg i.p. 15 minutes before nitrogen exposure): 3 of 8
animals protected from hypoxia-induced death (hypoxia-induced death; 25 mg/kg i.p. 30 minutes before nitrogen exposure): 4 of 8
animals protected from hypoxia-induced death (hypoxia-induced death; 25 mg/kg i.p. 60 minutes before nitrogen exposure): no protection
animals protected from hypoxia-induced death (hypoxia-induced death; 50 mg/kg i.p. 15 minutes before nitrogen exposure): all animals
animals protected from hypoxia-induced death (hypoxia-induced death; 50 mg/kg i.p. 30 minutes before nitrogen exposure): 3 of 8
animals protected from hypoxia-induced death (hypoxia-induced death; 50 mg/kg i.p. 60 minutes before nitrogen exposure): 2 of 8
attenuation of acetylcholine release evoked by NMDA [1]: significant attenuation
